Experimental data from PubChem BioAssay AID179 (DTP/NCI, 2004).
pEC50, pIC50: −log10 of the molar value. The source made the active and inactive calls.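 The calls were made as follows: active = compounds giving half or more protection of infected cells from virus-caused growth loss, again on retest; inactive = the rest.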

System: CEM cells HIV-1 protection, formazan growth assay
Experiment: NCI AIDS Antiviral Assay
Settings: for pIC50: measured here: growth of uninfected CEM cells
Outline: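 Human CEM cells, uninfected and HIV-1-infected, exposed to five drug concentrations; growth measured by soluble formazan assay and scored as percent protection from infection, with protecting compounds retested.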

SMILES: CCOC(=O)/C(C#N)=C/c1cccc(Cl)c1
- pEC50: < 4.10
- pIC50: < 4.10

SMILES: COc1cccc(N)c1N
- pEC50: < 2.93
- pIC50: 4.74

SMILES: Fc1cccc(C2ON=C(c3ccccc3)N2C23CC4CC(CC(C4)C2)C3)c1 (stereo unspecified)
- pEC50: < 3.70
- pIC50: < 3.70

SMILES: S=C1c2ccc(Cl)cc2-n2cnnc2C2CSCN12 (stereo unspecified)
- pEC50: < 3.70
- pIC50: < 3.70

SMILES: C#CC1(O)c2ccccc2C(=O)c2ccccc21
- outcome: inactive

SMILES: CCOc1ccc(/C=C2/C(=O)N=C(NC(C)=O)N2C)cc1
- pEC50: < 3.70
- pIC50: < 3.70

SMILES: Cc1ccc(-n2c3nc(=O)n(C)c(=O)c-3nc3ccccc32)cc1
- outcome: inactive

SMILES: COC1OC2COC(c3ccccc3)OC2C2OC(=S)OC12 (stereo unspecified)
- outcome: inactive

SMILES: C[CH2][Ge]([CH2]C)([CH2]C)[O]C(=O)C(OC(C)=O)c1ccccc1 (stereo unspecified)
- pEC50: < 3.60
- pIC50: 3.71

SMILES: NC(=S)N1N=C2CCCCCC[C@@H]2[C@H]1c1ccccc1
- outcome: inactive

SMILES: COc1cc([C@@H]2c3cc4c(cc3C(N)C3COC(=O)[C@@H]32)OCO4)cc(OC)c1O (stereo partly specified)
- outcome: inactive

SMILES: Oc1cc(N2CCCC2)ccc1/C=N/N1C(=S)N(c2ccccc2)C(=Nc2ccccc2)C1=Nc1ccccc1
- pEC50: < 4.00
- pIC50: < 4.00

SMILES: CC1=Nc2ccccc2NC(=O)C1
- pEC50: < 3.70
- pIC50: < 3.70

SMILES: Cc1cn(C2COC(C)(CO)O2)c(=O)[nH]c1=O (stereo unspecified)
- pEC50: < 3.70
- pIC50: < 3.70

SMILES: COC1=NCN=C2SC=C(N)N=C12
- pEC50: < 2.97
- pIC50: 3.25

SMILES: Fc1cccc(F)c1C1SCc2nc3cc(Cl)ccc3n21 (stereo unspecified)
- pEC50: < 3.70
- pIC50: 3.74

SMILES: O=[N+]([O-])c1ccc(C(Cl)C(Cl)c2ccc(C(Cl)C(Cl)c3ccc([N+](=O)[O-])cc3[N+](=O)[O-])cc2)c([N+](=O)[O-])c1 (stereo unspecified)
- pEC50: < 4.92
- pIC50: 5.29

SMILES: Cc1ccccc1/C=C1/N=C(c2ccccc2)OC1=O
- pEC50: < 3.70
- pIC50: 4.48

SMILES: Cc1cc(C)nc(NS(=O)(=O)c2ccc(Nc3c4ccccc4nc4c(C(=O)Nc5ccc(S(N)(=O)=O)cc5)cccc34)cc2)n1
- pEC50: < 3.84
- pIC50: < 3.84

SMILES: COc1cc2nc(CCc3nc4cc(OC)c(OC)cc4[nH]3)[nH]c2cc1OC
- pEC50: < 4.77
- pIC50: 4.91

SMILES: CC1Nc2ccccc2NC1C=C(C#N)C#N (stereo unspecified)
- pEC50: < 4.35
- pIC50: 5.17

SMILES: COc1cc2c(Cc3cc(OCc4ccccc4)ccc3N)nccc2c(OC)c1OC
- outcome: inactive

SMILES: CC1(C(N)=O)OC12CCCCC2 (stereo unspecified)
- pEC50: < 3.70
- pIC50: < 3.70

SMILES: CC(C)OP(=O)(OC(C)C)C(=NCCN=C(NNc1ccc([N+](=O)[O-])cc1)P(=O)(OC(C)C)OC(C)C)NNc1ccc([N+](=O)[O-])cc1
- pEC50: < 5.14
- pIC50: < 5.14

SMILES: O=C(CCCN1CCC2(CC1)C(=NC1CCCCC1)NC(=O)N2c1ccccc1)c1ccc(F)cc1
- pEC50: < 3.70
- pIC50: 4.03

SMILES: COc1ccc(/C=C2\C(=O)Nc3ccccc32)cc1OC
- pEC50: < 5.71
- pIC50: < 5.71

SMILES: CC(C)(c1cc(Cl)c(O)c(CN2CCOCC2)c1)c1cc(Cl)c(O)c(CN2CCOCC2)c1
- pEC50: < 3.70
- pIC50: 3.97

SMILES: CO[C@H]1C[C@H](O[C@H]2CC[C@]3(C=O)[C@H]4CC[C@]5(C)[C@@H](C6=CC(=O)OC6)CC[C@]5(O)[C@@H]4CC[C@]3(O)C2)O[C@H](C)[C@H]1O
- outcome: inactive

SMILES: COc1cc2c3c(c1OC)C1(C=CC(=O)C=C1)C[C@H]3N(C)CC2
- outcome: inactive

SMILES: Cc1cc[n+](CC(=O)CC([O-])(C(F)(F)F)C(F)(F)F)cc1
- pEC50: < 3.70
- pIC50: < 3.70

SMILES: O=C(NN=C1CCCCC1)NN=C1CCCCC1
- pEC50: < 4.00
- pIC50: < 4.00

SMILES: CCOC(=O)c1[nH]n(-c2ccccc2)c(=O)c1/C=N/C(=S)NCc1ccccc1
- pEC50: < 3.70
- pIC50: 4.35

SMILES: Cc1coc2c1C[C@@]1(C)[C@H](CCC[C@@H]1C)[C@H]2O
- pEC50: < 3.70
- pIC50: 4.56

SMILES: COc1ccc(C2=C/C(=C3/C(=O)C=C(C)OC3=O)SS2)cc1
- pEC50: < 4.00
- pIC50: < 4.00

SMILES: C1=CC(=[N+]2N=C(c3ccccc3)CC2c2ccccc2)C=CC1=C1SC(c2ccccc2)(c2ccccc2)c2ccccc21 (stereo unspecified)
- pEC50: < 3.70
- pIC50: < 3.70

SMILES: CC(C)C1CC(CO)(CNc2nc(N)nc(Cl)c2C=O)C1 (stereo unspecified)
- pEC50: < 3.70
- pIC50: 5.75

SMILES: CCOC(=O)c1c(O)cc(=O)[nH]c1N1CCOCC1
- pEC50: < 3.70
- pIC50: < 3.70

SMILES: CC1N=C(SCC(=O)c2ccc(Cl)cc2)N2C(C)N=C(SCC(=O)c3ccc(Cl)cc3)N12 (stereo unspecified)
- pEC50: < 4.71
- pIC50: < 4.71

SMILES: CC(=O)C1(Cc2cccc3ccccc23)S(=O)(=O)OCCOS1(=O)=O
- pEC50: < 3.70
- pIC50: 3.96

SMILES: C/C(C/C(C)=N\N=C(N)N)=N/N=C(N)N
- pEC50: < 3.70
- pIC50: < 3.70

SMILES: Nc1nc(SCc2ccccn2)c2ncn(C3CCCC3)c2n1
- pEC50: < 3.70
- pIC50: 3.96

SMILES: c1ccc(CN(Cn2cccn2)Cn2cccn2)nc1
- outcome: inactive

SMILES: COC1/C=C/OC2(C)Oc3c(C)c(O)c4c(O)c(c(/C=N/N5CC(C)(C)N(Cc6ccccc6)CC5(C)C)c(O)c4c3C2=O)NC(=O)C(C)=C/C=C/C(C)C(O)C(C)C(O)C(C)C(OC(C)=O)C1C (stereo unspecified)
- pEC50: < 4.56
- pIC50: 5.48

SMILES: C=CS(=O)(=O)c1c2cc(OC)ccc2nc2ccc(OC)cc12
- pEC50: < 4.70
- pIC50: 5.54

SMILES: CC(=O)OCC1OC(Nc2[nH]c(=O)n(C)c(=O)c2-c2csc(N)n2)C(OC(C)=O)C(OC(C)=O)C1OC(C)=O (stereo unspecified)
- outcome: inactive

SMILES: O=C1C(c2ccccc2)=C(O)c2cccc3cccc1c23
- pEC50: < 3.04
- pIC50: 4.07

SMILES: FC(F)(F)c1nc(Cl)c2ncsc2n1
- pEC50: < 3.70
- pIC50: 5.62

SMILES: COC(=O)C1C23CC(=O)CC1(c1ccc4c(c1)OCO4)C2NC3=O (stereo unspecified)
- pEC50: < 3.40
- pIC50: < 3.40

SMILES: O=C(CCC(=O)Nc1ccc(Cl)c(Cl)c1)CC(=O)c1ccc2ccccc2c1
- outcome: inactive

SMILES: CC(=O)Oc1c(C(C)C)cc2c(c1OC(C)=O)CC1(C)OC(=O)CC(C)(C)C1=CC2 (stereo unspecified)
- outcome: inactive

SMILES: CCCCNCCCC.[C-]#[O+].[C-]#[O+].[C-]#[O+].[C-]#[O+].[C-]#[O+].[Cr]
- pEC50: < 3.70
- pIC50: 4.25

SMILES: Cc1cc(NS(=O)(=O)c2ccc(NC(=O)c3ccc4nc5ccccc5c(Nc5ccc(S(N)(=O)=O)cc5)c4c3)cc2)no1
- pEC50: < 4.09
- pIC50: 4.53

SMILES: COc1c2occc2c(OC)c2c(=O)c(S(=O)(=O)NC(=O)Nc3ccc(Cl)cc3)coc12
- pEC50: < 3.70
- pIC50: 4.01

SMILES: CN1CCCN2CCN(C)CCCN(CC1)CC2
- pEC50: < 3.01
- pIC50: < 3.01

SMILES: CO/N=C(\C)CCC#Cc1ccccc1C(=O)OC
- pEC50: < 3.70
- pIC50: < 3.70

SMILES: c1ccc(COc2cccc3ccc[n+](Cc4ccccc4)c23)cc1
- pEC50: < 3.60
- pIC50: 5.33

SMILES: O=C1OC(=O)c2cc(S(=O)(=O)c3ccc4c(c3)C(=O)OC4=O)ccc21
- pEC50: < 3.70
- pIC50: < 3.70

SMILES: COc1ccc(NS(=O)c2ccccc2OC)cc1 (stereo unspecified)
- pEC50: < 3.70
- pIC50: 4.82

SMILES: COc1ccc(C(=CCC[C@H]2CC[C@@]3(C)[C@@H](CC[C@@H]4[C@@H]3CC[C@]3(C)[C@@H](C(C)CCCC(C)C)CC[C@@H]43)C2)c2ccc(OC)c(C(=O)O)c2)cc1C(=O)O (stereo partly specified)
- pEC50: < 3.70
- pIC50: < 3.70

SMILES: CC(C)CNC12CN3CN(CN(C3)C1)C2
- pEC50: < 2.92
- pIC50: < 2.92

SMILES: c1ccc(N=C2SC(=NC3CCCCC3)N(C3CCCCC3)C2=Nc2ccccc2)cc1
- pEC50: < 3.70
- pIC50: < 3.70

SMILES: CC(NC(=O)c1ccccc1)C(=O)N(Cc1ccccc1)Cc1ccccc1 (stereo unspecified)
- pEC50: < 4.01
- pIC50: < 4.01

SMILES: O=C(C=Nc1ccccc1C(=O)[O-])c1cccs1.O=C(C=Nc1ccccc1C(=O)[O-])c1cccs1.[Co+2]
- outcome: inactive

SMILES: Cc1cccc(N(CCC#N)S(=O)(=O)c2ccccc2)c1
- pEC50: < 3.70
- pIC50: 3.96

SMILES: Cn1nc(-c2cccc(-c3nn(C)c(=NCCO)s3)n2)sc1=NCCO
- pEC50: < 3.70
- pIC50: < 3.70

SMILES: O=C1C=C(Nc2ccc([N+](=O)[O-])cc2)c2ccccc2C1=O
- pEC50: < 5.17
- pIC50: < 5.17

SMILES: O=C1CCN2C(=O)CCN12
- pEC50: < 2.75
- pIC50: < 2.75

SMILES: N#CC1C(=O)NC(=O)C(C#N)C12CCCC(C(F)(F)F)C2 (stereo unspecified)
- pEC50: < 3.70
- pIC50: < 3.70

SMILES: COc1cccc(CN2CCN(/N=C/c3c4c(O)c5c(O)c(C)c6c(c5c3O)C(=O)C(C)(O/C=C/C(OC)C(C)C(OC(C)=O)C(C)C(O)C(C)C(O)C(C)/C=C/C=C(C)C(=O)N4)O6)CC2)c1 (stereo unspecified)
- pEC50: < 3.70
- pIC50: 5.18

SMILES: CC(C)C(N)=Nc1ccc(Cl)c(Cl)c1
- pEC50: < 3.70
- pIC50: 4.14

SMILES: c1cnc2c(c1)-n1cccc1C1(CCOCC1)NN2
- pEC50: < 3.70
- pIC50: < 3.70

SMILES: O=C(Nc1ccccc1-c1nc2ccccc2[nH]c1=O)c1ccccc1
- pEC50: < 4.28
- pIC50: 4.53

SMILES: Oc1ccccc1C1C=C(c2ccccc2)NC(N2CCCCC2)=C1c1nc2ccccc2[nH]1 (stereo unspecified)
- outcome: inactive

SMILES: COC(=O)c1sc2c(Cl)c(Cl)sc2c1Cl
- pEC50: < 4.30
- pIC50: < 4.30

SMILES: COc1cccc(NC(=S)/C(=C(/[O-])c2ccc([N+](=O)[O-])cc2)[n+]2ccccc2)c1
- pEC50: < 3.70
- pIC50: < 3.70

SMILES: CC(C)(C)c1ccc(O)c(C(O)c2ccncc2)c1 (stereo unspecified)
- pEC50: < 3.70
- pIC50: 4.10

SMILES: CC(=O)OC/C=C/[C@H](O[Si](C)(C)C(C)(C)C)[C@@H](O)/C=C/COC(C)=O
- pEC50: < 3.70
- pIC50: 3.79

SMILES: CN(C)C(n1cc2c(c1)-c1ccc(Cl)cc1C(c1ccccc1F)=NC2)n1cc2c(c1)-c1ccc(Cl)cc1C(c1ccccc1F)=NC2
- pEC50: < 4.00
- pIC50: 4.02

SMILES: N#Cc1nc(CSCc2ccccc2)oc1N
- pEC50: < 3.70
- pIC50: 3.93

SMILES: COc1ccc2c(O)c(S(=O)(=O)c3ccc(Cl)cc3)c(=O)oc2c1
- pEC50: < 3.70
- pIC50: 3.89

SMILES: COc1cccc2c1c1ccc3c(c1n2C)C(=O)C=CC3=O
- pEC50: < 4.75
- pIC50: 5.15

SMILES: CC(=O)C1=C(O)CCC1=O
- pEC50: < 3.70
- pIC50: < 3.70

SMILES: COc1ccc(/C=C/C(=O)/C=C/c2ccc(OC)cc2OC)c(OC)c1
- pEC50: < 3.70
- pIC50: 5.41

SMILES: N.N.N.N.N.NC(=O)c1nn[n-]n1.[Cl-].[Co+3]
- pEC50: < 3.12
- pIC50: < 3.12

SMILES: NC(=O)c1ccc[n+](C2=C([O-])c3ccccc3C(=O)/C2=N\S(=O)(=O)c2ccccc2)c1
- pEC50: < 3.70
- pIC50: 4.95
